Laboratory results reported in patent publication US8110605B2, “Compound for inactivating viruses and bacteria and method of making same” (priority 2009, dated 2012).
Like-named read-outs stand apart in the source and are kept apart here.

Tests used:
[1] = system: Influenza virus H1N1 subtype (A/WSN/33); type: cell-based
MDCK cells [2] = system: MDCK cells
MDCK cells [3] = system: MDCK cells; remark: listed apart in the source
[4] = system: H5N1 avian influenza virus (TW1209/03(H5N1)AIV); type: cell-based
[5] = system: avian influenza virus (AIV) subtype H5N2 (TW1209/04(H5N2)AIV) virions
[6] = system: H5N2 avian influenza virus (TW1209/04(H5N2)AIV); type: cell-based
MDCK cells [7] = system: MDCK cells; remark: listed apart in the source
[8] = system: Staphylococcus aureus strain (ATCC-25923); assay: Proliferation suppression of Staphylococcus aureus, MIC by broth dilution; type: cell-based; parameters: key to MIC of S. aureus: +: Proliferation of S. aureus,; −: Antibacterial effect of S. aureus; details: 10^4 CFU/mL
[9] = system: H5N2 avian influenza virus (TW1209/04(H5N2)AIV); type: cell-based; remark: listed apart in the source
[10] = system: Enterovirus type 71 (EV-71) virions; assay: AFM of Enterovirus type 71 virions treated with the compound; details: for maximum height of virus particles (AFM cursor profile): 5-10 minutes, native virion 75.23 nm; for calculated RMS height of treated particles: over 60 virus particles
[11] = system: H5N1 avian influenza virus (TW1209/03(H5N1)AIV); type: cell-based; remark: listed apart in the source

O=C(O)C(CCCCCCCCCCS)C(=O)O [2-(10-mercaptodecyl)-propanedioic acid]
−: CPE, H1N1 influenza virus treated with compound ([1]; 30 ppm) | CPE, H1N1 influenza virus treated with compound ([1]; 100 ppm) | CPE, H1N1 influenza virus treated with compound ([1]; 300 ppm) | CPE, compound only (MDCK cells [2]; 3 ppm) | CPE, compound only (MDCK cells [2]; 10 ppm) | CPE, compound only (MDCK cells [2]; 30 ppm) | CPE, compound only (MDCK cells [2]; 100 ppm) | CPE, compound only (MDCK cells [2]; 300 ppm) | CPE, compound only (MDCK cells [3]; 3 ppm) | CPE, compound only (MDCK cells [3]; 10 ppm) | CPE, compound only (MDCK cells [3]; 30 ppm) | CPE, compound only (MDCK cells [3]; 100 ppm) | CPE, compound only (MDCK cells [3]; 300 ppm) | CPE, H5N1 avian influenza virus treated with compound ([4]; 100 ppm) | CPE, H5N1 avian influenza virus treated with compound ([4]; 300 ppm) | CPE, compound only (MDCX cells; 3 ppm) | CPE, compound only (MDCX cells; 10 ppm) | CPE, compound only (MDCX cells; 30 ppm) | CPE, compound only (MDCX cells; 100 ppm) | CPE, compound only (MDCX cells; 300 ppm) | CPE, H5N2 avian influenza virus treated with compound ([6]; 100 ppm) | CPE, H5N2 avian influenza virus treated with compound ([6]; 300 ppm) | CPE, compound only (MDCK cells [7]; 3 ppm) | CPE, compound only (MDCK cells [7]; 10 ppm) | CPE, compound only (MDCK cells [7]; 30 ppm) | CPE, compound only (MDCK cells [7]; 100 ppm) | CPE, compound only (MDCK cells [7]; 300 ppm) | MIC of S. aureus ([8]; final concentration 20 ppm) | MIC of S. aureus ([8]; final concentration 50 ppm) | MIC of S. aureus ([8]; final concentration 100 ppm) | MIC of S. aureus ([8]; final concentration 200 ppm) | HA, H5N2 avian influenza virus treated with compound ([9]; 100 ppm) | HA, H5N2 avian influenza virus treated with compound ([9]; 300 ppm) | HA, H5N1 avian influenza virus treated with compound ([11]; 100 ppm) | HA, H5N1 avian influenza virus treated with compound ([11]; 300 ppm)
broken down and flattened: viral morphology by AFM [5] | viral morphology by AFM ([10]; 30 and 1,000 ppm, FIGS. 5B and 5C)
less than 300 ppm: concentration causing no cytotoxicity (MDCX cells; dog)
20 µg/mL: MIC ([8]; Staphylococcus aureus, ATCC25923, broth dilution method, read-out: final concentration suppressing proliferation of S. aureus (MIC))
+: CPE, H1N1 influenza virus treated with compound ([1]; 3 ppm) | CPE, H5N1 avian influenza virus treated with compound ([4]; 3 ppm) | CPE, H5N1 avian influenza virus treated with compound ([4]; 10 ppm) | CPE, H5N1 avian influenza virus treated with compound ([4]; 30 ppm) | CPE, H5N2 avian influenza virus treated with compound ([6]; 3 ppm) | CPE, H5N2 avian influenza virus treated with compound ([6]; 10 ppm) | CPE, H5N2 avian influenza virus treated with compound ([6]; 30 ppm) | MIC of S. aureus ([8]; final concentration 5 ppm) | MIC of S. aureus ([8]; final concentration 10 ppm) | HA, H5N2 avian influenza virus treated with compound ([9]; 3 ppm) | HA, H5N2 avian influenza virus treated with compound ([9]; 10 ppm) | HA, H5N2 avian influenza virus treated with compound ([9]; 30 ppm) | HA, H5N1 avian influenza virus treated with compound ([11]; 3 ppm) | HA, H5N1 avian influenza virus treated with compound ([11]; 10 ppm) | HA, H5N1 avian influenza virus treated with compound ([11]; 30 ppm)
~8.41 nm: maximum height of virus particles (AFM cursor profile) ([10]; 1,000 ppm, FIG. 5C′)
~10.35 nm: maximum height of virus particles (AFM cursor profile) ([10]; 30 ppm, FIG. 5B′)
14.29±0.87 nm: calculated RMS height of treated particles ([5]; 100 ppm)
30 ppm: concentration protecting cells against infection by influenza virus H1N1 subtype (as low as) [1]
8.35±0.63 nm: calculated RMS height of treated particles ([10]; 1,000 ppm)
above 1,000 ppm: concentration protecting cells against H5N1 influenza virus infection [4] | concentration protecting cells against H5N2 influenza virus infection [6] | concentration protecting RBC cells to sustain no agglutination (HA testing, H5N2) [9] | concentration protecting RBC cells to sustain no agglutination (HA testing, H5N1) [11]
exceeding 1,000 ppm: concentration at which cytotoxicity occurred (MDCX cells; dog)
10.49±0.52 nm: calculated RMS height of treated particles ([10]; 30 ppm)
CTX: CPE, H1N1 influenza virus treated with compound ([1]; 1,000 ppm) | CPE, H1N1 influenza virus treated with compound ([1]; 3,000 ppm) | CPE, compound only (MDCK cells [2]; 1,000 ppm) | CPE, compound only (MDCK cells [2]; 3,000 ppm) | CPE, compound only (MDCK cells [3]; 1,000 ppm) | CPE, compound only (MDCK cells [3]; 3,000 ppm) | CPE, H5N1 avian influenza virus treated with compound ([4]; 1,000 ppm) | CPE, H5N1 avian influenza virus treated with compound ([4]; 3,000 ppm) | CPE, compound only (MDCX cells; 1,000 ppm) | CPE, compound only (MDCX cells; 3,000 ppm) | CPE, H5N2 avian influenza virus treated with compound ([6]; 1,000 ppm) | CPE, H5N2 avian influenza virus treated with compound ([6]; 3,000 ppm) | CPE, compound only (MDCK cells [7]; 1,000 ppm) | CPE, compound only (MDCK cells [7]; 3,000 ppm) | HA, H5N2 avian influenza virus treated with compound ([9]; 1,000 ppm) | HA, H5N2 avian influenza virus treated with compound ([9]; 3,000 ppm) | HA, H5N1 avian influenza virus treated with compound ([11]; 1,000 ppm) | HA, H5N1 avian influenza virus treated with compound ([11]; 3,000 ppm)
5.62±0.53 nm: calculated RMS height of treated particles ([5]; 1,000 ppm)
